Data set [1] can be described thus: Decolorization of GV: activation of H2O2 with Vitamin C (Protocol 3). It counts as physicochemical. The following applies: 1% Vitamin C in 3% H2O2, TRIS, pH 6-7, first 10 μl of 0.1% GV. As to the method:
(§1) Protocol 1. Photo-oxidation of GV with H2O2 • 1.1. 0.15 g GV (0.1% w/v) was dissolved in 150 ml 3% H2O2. The solution was exposed to UV light (Bio-lab hood) for 2 hours. 5 ml of solution was extracted out, in increments of 5 mins. • 1.2. 10 μl of 0.1% GV in DI water was spiked onto a plated agar plate. After staining of the agar plate (evaporation of most of the water from the spiked drop), H2O2 was pipetted onto the stain in increments of 50 μl every 5 mins for 2 hours, under the UV light. Protocol 2. Oxidation of GV by activation of H2O2 with Ag • 2.1. 10.6 mg of nano-particle Silver was mixed into 40 ml 3% H2O2 with constant stirring. 0.1% GV in water was added at various increments (10 μl-1 ml) until purple color persisted. Molar concentration ratios (GV:Ag) were calculated to determine the molar ratio where GV is no longer oxidized. • 2.2 10 μl of 0.1% GV in DI water was spiked onto a plated agar plate. After staining of the agar plate (evaporation of most of the water from the spiked drop), 0.009 g of Ag was applied to the surface of the stain and 100 μl of H2O2 was pipette onto the Ag. Protocol 3. Oxidation of GV by activation of H2O2 with Vitamin C 1% Vitamin C (w/v) was dissolved in 100 ml 3% H2O2. 7 g of TRIS buffer was also dissolved in the H2O2. 0.1% GV in water was added at increments of 10 μl until the purple color persisted.

Data set [2] is described as follows: Decolorization of GV: photo-oxidation with H2O2 under UV light (Protocol 1). It counts as physicochemical. The following applies: 0.1% GV in 3% H2O2 and agar stain. As for the experimental part:
as §1

The nature of data set [3]: Decolorization of GV: activation of H2O2 with nano-particle silver (Protocol 2). Format: physicochemical. As to the method: as §1
Data set [4] is classed as physicochemical. The following applies: 0.5 %. As for the experimental part:
Compounding Conditions for stable gentian violet:
Barrel Temperatures: • Zone 1-5=170° C. • Zone 6=175° C.,
Compounding Temperature for degraded gentian violet:
Compounding was performed with Sigma Aldrich ACS grade gentian violet, lot 016K3691. HPLC analysis was performed by cutting and measuring 1 cm segments of each formulation (n=3) using the method described in Examples I and II.
The chromatograms in FIGS. 5-10 show the stable gentian violet followed by the degraded gentian violet, at 588 nm, 253 nm, and 280 nm. The degradation peaks from the 217° C. sample are evident as the new peaks at 253 and 280 nm wavelengths. The chromatogram of the low processing temperature was identical to that of the Gentian Violet raw material.

For the compound `CN(C)c1ccc(C(=C2C=CC(=[N+](C)C)C=C2)c2ccc(N(C)C)cc2)cc1` [gentian violet], in data set [1], the “color of solution after GV addition” value was “remained purple”. For the same compound, the “color change of GV” value in data set [2] is given as “No color change”. Further, the “color change of GV solution” value in data set [3] (0.1% GV pipetted into Ag + 3% H2O2 solution) is recorded as “fade to a faint yellow color”. The “color change of GV stain on agar” value in data set [3] (10 μl 0.1% GV stain, Ag + 100 μl H2O2) is “turn to a faint yellow color after 10 mins”. Further, in data set [4], the “processing temperature at which extruded gentian violet degrades” value was found to be 217 °C.

The values above are taken from patent US20090130171A1, “High concentration gentian violet containing medical devices and methods of making same” (priority 2007, published 2009).
